Experimental findings from publication PMC5218480 (PLoS ONE, 2017) are described below.

This test deals with MV-4-11 cells. As to the kind of experiment: Gene expression microarray analysis (Affymetrix PrimeView) and GSEA. Format: cell-based, human. Set-up: RFU PODN (11730768_x_at) / Fold change /veh PODN (11730768_x_at) / RFU LINC00158 (11744669_a_at) / Fold change /veh LINC00158 (11744669_a_at) / RFU DUSP10 (11751237_a_at) / Fold change /veh DUSP10 (11751237_a_at) / RFU ID3 (11757404_x_at) / Fold change /veh ID3 (11757404_x_at) / RFU PLEKHG5 (11737974_s_at) / Fold change /veh PLEKHG5 (11737974_s_at) / RFU LRRC4B (11730491_at) / Fold change /veh LRRC4B (11730491_at) / RFU GIMAP4 (11747438_a_at) / Fold change /veh GIMAP4 (11747438_a_at) / RFU KRT8 (11758183_x_at) / Fold change /veh KRT8 (11758183_x_at) / RFU CNN1 (11734310_a_at) / Fold change /veh CNN1 (11734310_a_at) / RFU VPS37D (11726825_at) / Fold change /veh VPS37D (11726825_at) / RFU C10orf10 (11716522_x_at) / Fold change /veh C10orf10 (11716522_x_at) / RFU KIR2DL2 /// KIR2DL4 /// KIR2DL5A /// KIR2DL5B /// KIR2DS1 /// KIR2DS2 /// KIR2DS3 /// KIR2DS4 /// KIR3DL3 /// KIR3DL3 /// KIR3DS1 (11738374_at) / Fold change /veh KIR2DL2 /// KIR2DL4 /// KIR2DL5A /// KIR2DL5B /// KIR2DS1 /// KIR2DS2 /// KIR2DS3 /// KIR2DS4 /// KIR3DL3 /// KIR3DL3 /// KIR3DS1 (11738374_at) / RFU C1QL1 (11718748_at) / Fold change /veh C1QL1 (11718748_at) / RFU TMPRSS4 (11747572_a_at) / Fold change /veh TMPRSS4 (11747572_a_at) / RFU HAMP (11756126_x_at) / Fold change /veh HAMP (11756126_x_at) / RFU RNFT2 (11725882_a_at) / Fold change /veh RNFT2 (11725882_a_at) / RFU NR4A2 (11747474_a_at) / Fold change /veh NR4A2 (11747474_a_at) / RFU ABCC12 (11746883_a_at) / Fold change /veh ABCC12 (11746883_a_at) / RFU TMEM136 (11760407_x_at) / Fold change /veh TMEM136 (11760407_x_at) / RFU CLDN22 /// WWC2 (11732394_at) / Fold change /veh CLDN22 /// WWC2 (11732394_at) / RFU HLA-DPB1 (11760878_x_at) / Fold change /veh HLA-DPB1 (11760878_x_at) / RFU SPINT1 (11716480_a_at) / Fold change /veh SPINT1 (11716480_a_at) / RFU GAP43 (11754022_s_at) / Fold change /veh GAP43 (11754022_s_at) / RFU A4GNT (11735810_at) / Fold change /veh A4GNT (11735810_at) / RFU PRB3 (11715151_x_at) / Fold change /veh PRB3 (11715151_x_at) / RFU TUBB4B (11761932_at) / Fold change /veh TUBB4B (11761932_at) / RFU CAPN14 (11732068_a_at) / Fold change /veh CAPN14 (11732068_a_at) / RFU TMCC2 (11721928_a_at) / Fold change /veh TMCC2 (11721928_a_at) / RFU IRGQ (11745062_a_at) / Fold change /veh IRGQ (11745062_a_at) / RFU FAM174B (11720279_a_at) / Fold change /veh FAM174B (11720279_a_at) / RFU TMPRSS4 (11748680_a_at) / Fold change /veh TMPRSS4 (11748680_a_at) / RFU FAM212B (11763350_a_at) / Fold change /veh FAM212B (11763350_a_at) / RFU PLEKHG5 (11743358_a_at) / Fold change /veh PLEKHG5 (11743358_a_at) / RFU ZSCAN30 (11745921_a_at) / Fold change /veh ZSCAN30 (11745921_a_at) / RFU CMKLR1 (11741424_a_at) / Fold change /veh CMKLR1 (11741424_a_at) / RFU LOC101060620 /// MAPK8IP1 (11723275_at) / Fold change /veh LOC101060620 /// MAPK8IP1 (11723275_at) / RFU SPTSSB (11747773_x_at) / Fold change /veh SPTSSB (11747773_x_at) / RFU PRSS12 (11739890_at) / Fold change /veh PRSS12 (11739890_at) / RFU BIN1 (11741810_x_at) / Fold change /veh BIN1 (11741810_x_at) / RFU WNT11 (11732464_a_at) / Fold change /veh WNT11 (11732464_a_at) / RFU C10orf10 (11716521_a_at) / Fold change /veh C10orf10 (11716521_a_at) / RFU C5orf56 (11738089_at) / Fold change /veh C5orf56 (11738089_at) / RFU CYB561 (11721691_x_at) / Fold change /veh CYB561 (11721691_x_at) / RFU ANKRD19P (11752326_a_at) / Fold change /veh ANKRD19P (11752326_a_at) / RFU OR2T12 /// OR2T33 /// OR2T8 (11738714_s_at) / Fold change /veh OR2T12 /// OR2T33 /// OR2T8 (11738714_s_at) / RFU VCAN (11748164_a_at) / Fold change /veh VCAN (11748164_a_at) / RFU JSRP1 (11732532_at) / Fold change /veh JSRP1 (11732532_at) / RFU KRTAP10-11 (11738290_x_at) / Fold change /veh KRTAP10-11 (11738290_x_at) / RFU MYO3A (11730013_a_at) / Fold change /veh MYO3A (11730013_a_at) / RFU EBF3 (11725865_a_at) / Fold change /veh EBF3 (11725865_a_at) / RFU CAMK2N1 (11719241_x_at) / Fold change /veh CAMK2N1 (11719241_x_at) / RFU C5orf56 (11738088_a_at) / Fold change /veh C5orf56 (11738088_a_at) / RFU OLFML3 (11715873_a_at) / Fold change /veh OLFML3 (11715873_a_at) / RFU LOC100653217 /// NTM (11731650_a_at) / Fold change /veh LOC100653217 /// NTM (11731650_a_at) / RFU MAPK11 (11762145_a_at) / Fold change /veh MAPK11 (11762145_a_at) / RFU FIZ1 (11724087_x_at) / Fold change /veh FIZ1 (11724087_x_at) / RFU OASL (11726364_x_at) / Fold change /veh OASL (11726364_x_at) / RFU SOX15 (11748057_x_at) / Fold change /veh SOX15 (11748057_x_at) / RFU CD79A (11719716_a_at) / Fold change /veh CD79A (11719716_a_at) / RFU HIST1H1D (11736915_at) / Fold change /veh HIST1H1D (11736915_at) / RFU CASKIN2 (11723855_a_at) / Fold change /veh CASKIN2 (11723855_a_at) / RFU LOC730098 (11760151_x_at) / Fold change /veh LOC730098 (11760151_x_at) / RFU OR4N2 (11742367_at) / Fold change /veh OR4N2 (11742367_at) / RFU PRRT2 (11749266_a_at) / Fold change /veh PRRT2 (11749266_a_at) / RFU SNX32 (11753110_a_at) / Fold change /veh SNX32 (11753110_a_at) / RFU CDHR5 (11726645_a_at) / Fold change /veh CDHR5 (11726645_a_at) / RFU RCAN1 (11760418_a_at) / Fold change /veh RCAN1 (11760418_a_at) / RFU FAM167A (11723789_a_at) / Fold change /veh FAM167A (11723789_a_at) / RFU FAM26E (11764081_at) / Fold change /veh FAM26E (11764081_at) / RFU ISYNA1 (11749810_s_at) / Fold change /veh ISYNA1 (11749810_s_at) / RFU ACY1 (11761880_at) / Fold change /veh ACY1 (11761880_at) / RFU 11764098_at / Fold change /veh 11764098_at / RFU SAMD14 (11745864_x_at) / Fold change /veh SAMD14 (11745864_x_at) / RFU NPB (11741838_a_at) / Fold change /veh NPB (11741838_a_at) / RFU TMPRSS6 (11731388_a_at) / Fold change /veh TMPRSS6 (11731388_a_at) / RFU KRTAP10-2 (11738614_at) / Fold change /veh KRTAP10-2 (11738614_at) / RFU ARHGAP8 /// PRR5-ARHGAP8 (11727945_x_at) / Fold change /veh ARHGAP8 /// PRR5-ARHGAP8 (11727945_x_at) / RFU KRTAP5-7 /// NADSYN1 (11734609_at) / Fold change /veh KRTAP5-7 /// NADSYN1 (11734609_at) / RFU RASL12 (11751679_a_at) / Fold change /veh RASL12 (11751679_a_at) / RFU CDKN2B (11736163_a_at) / Fold change /veh CDKN2B (11736163_a_at) / RFU PRF1 (11729649_at) / Fold change /veh PRF1 (11729649_at) / RFU, ZNF638 /// ZNF638-IT1 / Fold change vs veh, ZNF638 /// ZNF638-IT1 / RFU, PANK3 / Fold change vs veh, PANK3 / RFU, SH3YL1 / Fold change vs veh, SH3YL1 / RFU, ZEB2 / Fold change vs veh, ZEB2 / RFU, NRIP1 / Fold change vs veh, NRIP1 / RFU, PTTG1IP / Fold change vs veh, PTTG1IP / RFU, CAPN2 / Fold change vs veh, CAPN2 / RFU, MED14 / Fold change vs veh, MED14 / RFU, SNORA58 / Fold change vs veh, SNORA58 / RFU, C1orf63 / Fold change vs veh, C1orf63 / RFU, LRRFIP1 / Fold change vs veh, LRRFIP1 / RFU, NDUFAF7 / Fold change vs veh, NDUFAF7 / RFU, SLC12A2 / Fold change vs veh, SLC12A2 / RFU, IBTK / Fold change vs veh, IBTK / RFU, ESF1 / Fold change vs veh, ESF1 / Fold change vs veh, TMEM50B / RFU, TAOK1 / Fold change vs veh, TAOK1 / RFU, ACBD3 / Fold change vs veh, ACBD3 / RFU, TMA16 / Fold change vs veh, TMA16 / RFU, RWDD3 / Fold change vs veh, RWDD3 / RFU, BCAT1 / Fold change vs veh, BCAT1 / RFU, EDEM3 / Fold change vs veh, EDEM3 / RFU, TMEM33 / Fold change vs veh, TMEM33 / RFU, WDR75 / Fold change vs veh, WDR75 / RFU, AHCTF1 / Fold change vs veh, AHCTF1 / RFU, TFRC / Fold change vs veh, TFRC / RFU, ZDHHC17 / Fold change vs veh, ZDHHC17 / RFU, NOM1 / Fold change vs veh, NOM1 / RFU, ARL8B / Fold change vs veh, ARL8B / RFU, ZBTB11 / Fold change vs veh, ZBTB11 / RFU, TAMM41 / Fold change vs veh, TAMM41 / RFU, KIAA1704 /// LOC100996395 / Fold change vs veh, KIAA1704 /// LOC100996395 / RFU, ING1 / Fold change vs veh, ING1 / RFU, TRMT61B / Fold change vs veh, TRMT61B / RFU, FUBP3 / Fold change vs veh, FUBP3 / RFU, TP53 / Fold change vs veh, TP53 / RFU, TNKS2 / Fold change vs veh, TNKS2 / RFU, ZFP14 / Fold change vs veh, ZFP14 / RFU, ACTR2 / Fold change vs veh, ACTR2 / RFU, PPP3R1 / Fold change vs veh, PPP3R1 / RFU, PIK3R1 / Fold change vs veh, PIK3R1 / RFU, HNRNPA1 / Fold change vs veh, HNRNPA1 / RFU, RNF170 / Fold change vs veh, RNF170 / RFU, ZNF28 / Fold change vs veh, ZNF28 / RFU, RNGTT / Fold change vs veh, RNGTT / RFU, OGT / Fold change vs veh, OGT / RFU, BRD1 / Fold change vs veh, BRD1 / RFU, MARS / Fold change vs veh, MARS / RFU, ZNF655 / Fold change vs veh, ZNF655 / RFU, FAHD1 / Fold change vs veh, FAHD1 / RFU, BDP1 / Fold change vs veh, BDP1 / RFU, LRRCC1 / Fold change vs veh, LRRCC1 / RFU, ARID1A / Fold change vs veh, ARID1A / RFU, ZNF146 / Fold change vs veh, ZNF146 / RFU, ZNF330 / Fold change vs veh, ZNF330 / RFU, GPN3 / Fold change vs veh, GPN3 / RFU, C9orf123 / Fold change vs veh, C9orf123 / RFU, N4BP2L2 / Fold change vs veh, N4BP2L2 / RFU, ARFIP1 / Fold change vs veh, ARFIP1 / RFU, FAM179B / Fold change vs veh, FAM179B / RFU, BCL10 / Fold change vs veh, BCL10 / RFU, UHRF1BP1L / Fold change vs veh, UHRF1BP1L / RFU, BET1 / Fold change vs veh, BET1 / RFU, CNOT2 / Fold change vs veh, CNOT2 / RFU, ZNF268 / Fold change vs veh, ZNF268 / Fold change vs veh, ZNF507 / RFU, DGCR2 / Fold change vs veh, DGCR2 / RFU, WDSUB1 / Fold change vs veh, WDSUB1 / Fold change vs veh, HSP90B1 /// MIR3652 / RFU, ADSS / Fold change vs veh, ADSS / RFU, GK / Fold change vs veh, GK / RFU, ZNF148 / Fold change vs veh, ZNF148 / RFU, TAF9 / Fold change vs veh, TAF9 / RFU, SLC1A5 / Fold change vs veh, SLC1A5 / RFU, SLMO2 / Fold change vs veh, SLMO2 / RFU, ABCC4 / Fold change vs veh, ABCC4 / RFU, LOC101060439 /// RAP1B / Fold change vs veh, LOC101060439 /// RAP1B / RFU, RFX7 / Fold change vs veh, RFX7 / RFU, GTPBP10 / Fold change vs veh, GTPBP10 / RFU, CNEP1R1 / Fold change vs veh, CNEP1R1 / RFU, BIVM-ERCC5 /// ERCC5 / Fold change vs veh, BIVM-ERCC5 /// ERCC5 / RFU, ILF3 / Fold change vs veh, ILF3 / RFU 11762660_at / Fold change /veh 11762660_at / RFU VCAN (11757783_s_at) / Fold change /veh VCAN (11757783_s_at) / RFU DDX43 (11728927_at) / Fold change /veh DDX43 (11728927_at) / RFU KRT8 (11758188_x_at) / Fold change /veh KRT8 (11758188_x_at) / RFU NKD1 (11759106_at) / Fold change /veh NKD1 (11759106_at) / RFU SRD5A1 (11742802_a_at) / Fold change /veh SRD5A1 (11742802_a_at) / RFU TPSAB1 /// TPSB2 (11721975_s_at) / Fold change /veh TPSAB1 /// TPSB2 (11721975_s_at) / RFU GSTM3 (11746129_a_at) / Fold change /veh GSTM3 (11746129_a_at) / RFU IL23R (11737362_x_at) / Fold change /veh IL23R (11737362_x_at) / RFU TMEM51 (11727254_a_at) / Fold change /veh TMEM51 (11727254_a_at) / RFU PIWIL2 (11732686_x_at) / Fold change /veh PIWIL2 (11732686_x_at) / RFU ORM1 (11744905_x_at) / Fold change /veh ORM1 (11744905_x_at) / RFU CCDC152 (11743942_at) / Fold change /veh CCDC152 (11743942_at) / RFU ECM1 (11717891_a_at) / Fold change /veh ECM1 (11717891_a_at) / RFU IL23R (11748794_a_at) / Fold change /veh IL23R (11748794_a_at) / RFU TNFAIP8L3 (11732012_x_at) / Fold change /veh TNFAIP8L3 (11732012_x_at) / RFU MBOAT4 (11741988_at) / Fold change /veh MBOAT4 (11741988_at) / RFU 11764193_at / Fold change /veh 11764193_at / RFU TMEM53 (11763286_at) / Fold change /veh TMEM53 (11763286_at) / RFU MAGEB2 (11727129_at) / Fold change /veh MAGEB2 (11727129_at) / RFU TMEM200A (11744735_a_at) / Fold change /veh TMEM200A (11744735_a_at) / RFU CCDC152 (11751479_a_at) / Fold change /veh CCDC152 (11751479_a_at) / RFU FAM211A (11726209_a_at) / Fold change /veh FAM211A (11726209_a_at) / RFU RGS16 (11746705_a_at) / Fold change /veh RGS16 (11746705_a_at) / RFU VCAN (11755009_s_at) / Fold change /veh VCAN (11755009_s_at) / RFU RHOB (11743442_s_at) / Fold change /veh RHOB (11743442_s_at) / RFU RGS16 (11720943_a_at) / Fold change /veh RGS16 (11720943_a_at) / RFU RGS16 (11720944_at) / Fold change /veh RGS16 (11720944_at) / RFU, VPS4B / Fold change vs veh, VPS4B / RFU, CREB1 / Fold change vs veh, CREB1 / RFU, DNAJC13 / Fold change vs veh, DNAJC13 / RFU, GNAQ / Fold change vs veh, GNAQ / RFU, CDK5R1 / Fold change vs veh, CDK5R1 / RFU, ZRANB3 / Fold change vs veh, ZRANB3 / RFU, CUL4A / Fold change vs veh, CUL4A / RFU, CCNY / Fold change vs veh, CCNY / RFU, UFL1 / Fold change vs veh, UFL1 / RFU, COG3 / Fold change vs veh, COG3 / RFU, DIAPH2 / Fold change vs veh, DIAPH2 / RFU, SKA2 / Fold change vs veh, SKA2 / RFU, AFF3 / Fold change vs veh, AFF3 / RFU, LMF1 / Fold change vs veh, LMF1 / RFU, IPO11 / Fold change vs veh, IPO11 / RFU, DFFB / Fold change vs veh, DFFB / RFU, FOXP1 / Fold change vs veh, FOXP1 / RFU, CARD8 / Fold change vs veh, CARD8 / RFU, STRN3 / Fold change vs veh, STRN3 / RFU, ADK / Fold change vs veh, ADK / RFU, RASSF2 / Fold change vs veh, RASSF2 / RFU, WIPF1 / Fold change vs veh, WIPF1 / RFU, LARP1B / Fold change vs veh, LARP1B / RFU, RASA1 / Fold change vs veh, RASA1 / RFU, RB1 / Fold change vs veh, RB1 / RFU, PPFIA1 / Fold change vs veh, PPFIA1 / RFU, MAT2A / Fold change vs veh, MAT2A / RFU, CCT5 / Fold change vs veh, CCT5 / RFU, WDR92 / Fold change vs veh, WDR92 / RFU, CUX1 / Fold change vs veh, CUX1 / RFU, TTC7A / Fold change vs veh, TTC7A / RFU, TMEM135 / Fold change vs veh, TMEM135 / RFU, DEPTOR / Fold change vs veh, DEPTOR / RFU, CPM / Fold change vs veh, CPM / RFU, DNAJB6 / Fold change vs veh, DNAJB6 / RFU, CACNA2D3 / Fold change vs veh, CACNA2D3 / RFU, DTX4 / Fold change vs veh, DTX4 / RFU, TFCP2 / Fold change vs veh, TFCP2 / RFU, GMCL1 /// GMCL1P1 / Fold change vs veh, GMCL1 /// GMCL1P1 / RFU, AEBP2 / Fold change vs veh, AEBP2 / RFU, SNHG1 /// SNORD22 /// SNORD25 /// SNORD26 /// SNORD27 /// SNORD28 /// SNORD29 /// SNORD31 / Fold change vs veh, SNHG1 /// SNORD22 /// SNORD25 /// SNORD26 /// SNORD27 /// SNORD28 /// SNORD29 /// SNORD31 / Fold change (Aza/veh), C12orf56 (ProbeSet 11735607_a_at) / Fold change (ACY-1035/veh), C12orf56 (ProbeSet 11735607_a_at) / Fold change (Aza/veh), FGFR1OP (ProbeSet 11751329_s_at) / Fold change (ACY-1035/veh), FGFR1OP (ProbeSet 11751329_s_at) / Fold change (Aza/veh), VPS36 (ProbeSet 11739960_a_at) / Fold change (ACY-1035/veh), VPS36 (ProbeSet 11739960_a_at) / RFU SYPL1 (11715823_x_at) / Fold change /veh SYPL1 (11715823_x_at) / RFU IGFBP7 (11715501_s_at) / Fold change /veh IGFBP7 (11715501_s_at) / RFU REEP3 (11722064_at) / Fold change /veh REEP3 (11722064_at) / RFU IGLL1 (11728026_x_at) / Fold change /veh IGLL1 (11728026_x_at): dose or concentration left out as unconfirmed. To be noted: MV-4-11 cells, 48 hours.

As to `Nc1ccc(-c2cccs2)cc1NC(=O)c1ccc2c(c1)cc(C1CC1)n2CCN1CCOCC1` [ACY-1035], the “Fold change /veh SPINT1 (11716480_a_at)” value is on record as 1.05.
